Test results from patent US20250214977A1, “STAT6 INHIBITORS AND USES THEREOF” (Kymera Therapeutics, Inc., priority 2024, published 2025).
pIC50: −log10 of the molar value.

Each compound was assayed on Phosphorylation of STAT6 in human A549 cells (assay: Phosphorylated STAT6 (pSTAT6) flow cytometry assay in human A549 cells). Conditions: read-out: STAT6 IL4 pSTAT6 assay in A549 cells: Average IC50.
Assay type: cell-based
Source text: Example 3. Phosphorylated STAT6 (pSTAT6) Flow Cytometry Assay in Human A549 Cells
Phosphorylation of STAT6 in human A549 cells was quantitatively measured using flow cytometry technology.

| pIC50 | Compound |
| --- | --- |
| < 4.00 | CCc1ccc(-c2cc(C(=O)N3CCN(c4ncc(F)cc4OC)CC3)cc3cc(C4=CCCN(C(=O)C5CC5C(=O)O)C4)n(CC4CC4)c23)c(C)n1 (stereo not drawn) [Example I-550] |
| 6.00 to 7.00 | COc1ccccc1-c1cc(C2=CCCN(C(=O)CCn3ccnn3)C2)c(F)c2[nH]c(C(=O)N3CCN(c4cc(C)cc(Br)c4OC)CC3)cc12 [Example I-964] |
| 6.00 to 7.00 | CCOC(=O)CC(=O)N1CCC=C(c2cc3cc(C(=O)N4CCN(c5ncc(F)cc5OC)CC4)cc(-c4ccc(C)nc4CC)c3n2CC2CC2)C1 [Example I-1173] |
| < 4.00 | CCOC(=O)C(=O)N1CCC=C(c2cc3cc(C(=O)N4Cc5cnn(CC)c5C4)cc(-c4ccc(CC)nc4C)c3n2CC2CC2)C1 [Example I-799] |
| 6.00 to 7.00 | COc1ccccc1-c1cc(C2=CCCN(C(=O)CCn3ccnn3)C2)c(F)c2[nH]c(C(=O)N3CCN(c4c(O)ccc5ccccc45)CC3)cc12 [Example I-965] |
| > 7.00 | COc1ccccc1-c1cc(C2=CCCN(C(=O)CCn3ccnn3)C2)c(F)c2[nH]c(C(=O)N(C)CCc3ccccn3)cc12 [Example I-986] |
| > 7.00 | CCc1cc(C)ncc1-c1cc(C2=CCCN(C(=O)CCn3ccnn3)C2)c(F)c2[nH]c(C(=O)N3Cc4cnn(CC)c4C3)cc12 [Example I-529] |
| 6.00 to 7.00 | CCOc1cc(-c2cc(C3=CCCN(C(=O)CCn4ccnn4)C3)c(F)c3[nH]c(C(=O)N4CCN(c5ncc(F)cc5OC)CC4)cc23)cc(F)c1F [Example I-642] |
| > 7.00 | COCCOc1cccnc1N1CCN(C(=O)c2cc3c(-c4ccccc4OC)cc(C4=CCCN(C(=O)CCn5ccnn5)C4)c(F)c3[nH]2)CC1 [Example I-330] |
| 6.00 to 7.00 | CC(=O)N1CCC=C(c2cc(-c3cnc4[nH]cc(C)c4c3)c3cc(C(=O)N(C)C)[nH]c3c2F)C1 [Example I-897] |
| > 7.00 | COc1ccccc1-c1cc(C2=CCCN(C(=O)CCn3ccnn3)C2)c(F)c2[nH]c(C(=O)N3CCN(c4ncc(C)cc4OC)CC3)cc12 [Example I-939] |
| 6.00 to 7.00 | COc1cc(F)cnc1N1CCN(C(=O)c2cc3c(-c4cnn(-c5ccccc5)c4)cc(C4=CCCN(C(=O)CCn5ccnn5)C4)c(F)c3[nH]2)CC1 [Example I-671] |
| > 7.00 | COc1cc(F)cnc1N1CCN(C(=O)c2cc3c(C4=CCN(Cc5ccccc5)CC4)cc(C4=CCCN(C(=O)CCn5ccnn5)C4)c(F)c3[nH]2)CC1 [Example I-1132] |
| > 7.00 | CCc1ccncc1-c1cc(C2=CCCN(C(=O)CCn3ccnn3)C2)c(F)c2[nH]c(C(=O)N3CCN(c4ccccc4OC)CC3)cc12 [Example I-471] |
| > 7.00 | COc1ccncc1-c1cc(C2=CCCN(C(=O)CCn3ccnn3)C2)c(F)c2[nH]c(C(=O)N3CCN(c4ccc(C(F)(F)F)cc4OC)CC3)cc12 [Example I-463] |
| > 7.00 | COc1ccccc1-c1cc(C2=CCCN(C(=O)CCn3ccnn3)C2)c(F)c2[nH]c(C(=O)N3CCN(c4c(C)cc[nH]c4=O)CC3)cc12 [Example I-1030] |
| > 7.00 | CN(C)C(=O)c1cc2c(F)c(C3=CCCN(C(=O)CCn4ccnn4)C3)ccc2o1 [Example I-1052] |
| > 7.00 | COc1ccncc1-c1cc(C2=CCCN(C(=O)CCn3ccnn3)C2)c(F)c2[nH]c(C(=O)N(C)C)cc12 [Example I-1065] |
| 6.00 to 7.00 | CC(=O)N1CCC=C(c2cc(-c3ccc4cncnc4c3)c3cc(C(=O)N(C)C)[nH]c3c2F)C1 [Example I-887] |

| pIC50 | Compound |
| --- | --- |
| > 7.00 | COc1cc(F)cnc1N1CCN(C(=O)c2cc3c(-c4ccc5c(C)nn(C)c5c4)cc(C4=CCCN(C(=O)CCn5ccnn5)C4)c(F)c3[nH]2)CC1 [Example I-623] |
| > 7.00 | Cc1cc(F)ccc1-c1cc(C2=CCCN(C(=O)CCn3ccnn3)C2)cc2cc(C(=O)N(C)C)oc12 [Example I-1083] |
| 6.00 to 7.00 | COc1cc(F)cnc1N1CCN(C(=O)c2cc3c(C4=Cc5ccccc5C4)cc(C4=CCCN(C(=O)CCn5ccnn5)C4)c(F)c3[nH]2)CC1 [Example I-1161] |
| > 7.00 | COc1ccccc1-c1cc(C2=CCCN(C(=O)CCn3ccnn3)C2)c(F)c2[nH]c(C(=O)N3CCN(c4c(F)cccc4OC4CC4)CC3)cc12 [Example I-424] |
| 6.00 to 7.00 | COc1cccc(N2CCN(C(=O)c3cc4c(-c5cnc6ccccc6c5OC)cc(C5=CCCN(C(=O)CCn6ccnn6)C5)c(F)c4[nH]3)CC2)n1 [Example I-1038] |
| > 7.00 | COc1ccncc1-c1cc(C2=CCCN(C(=O)CCn3ccnn3)C2)c(F)c2[nH]c(C(=O)N3CCN(c4ccc(C5CC5)cc4OC)CC3)cc12 [Example I-481] |
| 6.00 to 7.00 | CN(C)C(=O)c1cc2cc(C3=CCCN(C(=O)CCn4ccnn4)C3)cc(NCc3ccc(F)cc3)c2o1 [Example I-872] |
| < 4.00 | COc1ccncc1-c1cc(C2=CCCN(C(C)=O)C2)c(F)c2[nH]c(C(=O)N3CCN(c4ccccc4OC)CC3)cc12 [Example I-409] |
| > 7.00 | COc1cnccc1-c1cc(C2=CCCN(C(=O)CCn3ccnn3)C2)c(F)c2[nH]c(C(=O)N3CCN(c4ncccc4OC4CC4)CC3)cc12 [Example I-593] |
| > 7.00 | COc1ccccc1-c1cc(C2=CCCN(C(=O)CCn3ccnn3)C2)c(F)c2[nH]c(C(=O)N3CCN(CC4(C#N)CC4)CC3)cc12 [Example I-1014] |
| > 7.00 | CNc1cccnc1N1CCN(C(=O)c2cc3c(-c4ccccc4OC)cc(C4=CCCN(C(=O)CCn5ccnn5)C4)c(F)c3[nH]2)CC1 [Example I-439] |
| > 7.00 | CCc1ccccc1-c1cc(C2=CCCN(C(=O)CCn3ccnn3)C2)c(F)c2[nH]c(C(=O)N3CCN(c4ncc(F)cc4OC)CC3)cc12 [Example I-665] |
| > 7.00 | COc1cnccc1-c1cc(C2=CCCN(C(=O)CCn3ccnn3)C2)cc2[nH]c(C(=O)N(C)C)cc12 [Example I-1060] |
| < 4.00 | CCc1cnccc1-c1cc(C2=CCCN(C(=O)CCn3ccnn3)C2)c(F)c2[nH]c(C(=O)N3CCN(c4ncc(OC)cc4OC)CC3)cc12 [Example I-484] |
| > 7.00 | COc1cc(F)cnc1N1CCN(C(=O)c2cc3c(-c4ccncc4C(C)C)cc(C4=CCCN(C(=O)CCn5cccn5)C4)c(F)c3[nH]2)CC1 [Example I-685] |
| > 7.00 | COc1ccccc1-c1cc(C2=CCCN(C(=O)CCn3ccnn3)C2)c(F)c2[nH]c(C(=O)N3CCN(c4cnc(SC)n5cnnc45)CC3)cc12 [Example I-910] |
| > 7.00 | COc1ccccc1-c1cc(C2=CCCN(C(=O)CCn3ccnn3)C2)c(F)c2[nH]c(C(=O)N3CCN(c4nc5ccccc5n4CC4CC4)CC3)cc12 [Example I-943] |
| < 4.00 | COc1ccccc1N1CCN(C(=O)c2cc3c(-c4cnccc4OCF)cc(C4=CCCN(C(=O)CCn5ccnn5)C4)c(F)c3[nH]2)CC1 [Example I-405] |
| > 7.00 | COc1cc(C#N)ccc1-c1cc(C2=CCCN(C(=O)CCn3ccnn3)C2)c(F)c2[nH]c(C(=O)N3CCN(c4ncccc4OC)CC3)cc12 [Example I-576] |

| pIC50 | Compound |
| --- | --- |
| 6.00 to 7.00 | CCc1cc(CC)c(-c2cc(C3=CCCN(C(=O)CCn4cccn4)C3)c(F)c3[nH]c(C(=O)N4CCN(c5nc(C)c(F)cc5OC)CC4)cc23)cn1 [Example I-741] |
| < 4.00 | CCc1nc(C)ccc1-c1cc(C(=O)N2Cc3cnn(CC)c3C2)cc2cc(C3=CCCN(C(=O)CCn4ccnn4)C3)n(CC3CC3)c12 [Example I-535] |
| > 7.00 | COc1ncccc1-c1cc(C(=O)N2Cc3cnn(C)c3C2)cc2cc(C3=CCCN(C(=O)CC(=O)O)C3)n(CC3CC3)c12 [Example I-791] |
| > 7.00 | CCC1CN(C)CCC1c1cc(C2=CCCN(C(=O)CCn3ccnn3)C2)c(F)c2[nH]c(C(=O)N3CCN(c4ncc(F)cc4OC)CC3)cc12 (stereo not drawn) [Example I-781] |
| > 7.00 | COc1ccccc1N1CCN(C(=O)c2cc3c(-c4cccnc4OC)cc(C4=CCCN(C(=O)CCn5ccnn5)C4)c(F)c3[nH]2)CC1 [Example I-599] |
| 6.00 to 7.00 | COc1cc(F)cnc1N1CCN(C(=O)c2cc3c(-c4ccn(-c5ccccc5)n4)cc(C4=CCCN(C(=O)CCn5ccnn5)C4)c(F)c3[nH]2)CC1 [Example I-1113] |
| > 7.00 | CCc1cccnc1N1CCN(C(=O)c2cc3c(-c4ccccc4OC)cc(C4=CCCN(C(=O)CCn5ccnn5)C4)c(F)c3[nH]2)CC1 [Example I-327] |
| > 7.00 | COc1cccnc1N1CCN(C(=O)c2cc3c(-c4cnccc4OC4CC4)cc(C4=CCCN(C(=O)CCn5ccnn5)C4)c(F)c3[nH]2)CC1 [Example I-556] |
| > 7.00 | CCOc1ccc(-c2cc(C3=CCCN(C(=O)CCn4ccnn4)C3)c(F)c3[nH]c(C(=O)N4CCN(c5ncc(F)cc5OC)CC4)cc23)c(OCC)c1 [Example I-618] |
| 5.00 to 6.00 | CCc1ccncc1-c1cc(C2=CCCN(C(=O)C(C)C)C2)c(F)c2[nH]c(C(=O)N3CCN(c4ncc(F)cc4OC)CC3)cc12 [Example I-1044] |
| 6.00 to 7.00 | CCC1=C(c2cc(C3=CCCN(C(=O)CCn4ccnn4)C3)c(F)c3[nH]c(C(=O)N4CCN(c5ncc(F)cc5OC)CC4)cc23)CCCC1 [Example I-1172] |
| > 7.00 | COc1ccccc1-c1cc(C2=CCCN(C(=O)CCn3ccnn3)C2)c(F)c2[nH]c(C(=O)N3CCN(c4c(C)ccc5c4cnn5C)CC3)cc12 [Example I-928] |
| > 7.00 | COc1ccccc1-c1cc(C2=CCCN(C(=O)CCn3ccnn3)C2)c(F)c2[nH]c(C(=O)N3CCC(N(C)C4CC4)C3)cc12 (stereo not drawn) [Example I-898] |
| > 7.00 | COc1cc(F)cnc1N1CCN(C(=O)c2cc3c(-c4cc(C)cc5cccnc45)cc(C4=CCCN(C(=O)CCn5ccnn5)C4)c(F)c3[nH]2)CC1 [Example I-633] |
| > 7.00 | CCc1ccncc1-c1cc(C(=O)N2Cc3cnn(C)c3C2)cc2cc(C3=CCCN(C(=O)CCn4ccnn4)C3)n(CC3CC3)c12 [Example I-727] |
| 4.00 to 5.00 | CCc1ccncc1-c1cc(C2=CCCN(C(=O)CCn3ccnn3)C2)c(F)c2[nH]c(C(=O)N3Cc4cnn(C)c4C3)cc12 [Example I-704] |
| > 7.00 | COc1cccc(N2CCN(C(=O)c3cc4c(-c5ccc(F)cc5OC)cc(C5=CCCN(C(=O)CCn6ccnn6)C5)c(F)c4[nH]3)CC2)n1 [Example I-589] |
| > 7.00 | COc1ccncc1-c1cc(C2=CCCN(C(=O)CCn3ccnn3)C2)c(F)c2[nH]c(C(=O)N3CCN(c4ncc(C5CC5)cc4OC)CC3)cc12 [Example I-438] |
| > 7.00 | COc1ccccc1-c1cc(C2=CCCN(C(=O)CCn3ccnn3)C2)c(F)c2[nH]c(C(=O)N3CCN(c4cc(F)cc(F)c4OC)CC3)cc12 [Example I-357] |
